These compounds were tested against NAMPT (Homo sapiens, UniProt P43490) (assay: Assay for in vitro NAMPT activity via NMN assessment). Details: read-out: A: NAMPT enzyme inhibitory activity, IC50.
Sequence of NAMPT (P43490 whole entry, species assumed): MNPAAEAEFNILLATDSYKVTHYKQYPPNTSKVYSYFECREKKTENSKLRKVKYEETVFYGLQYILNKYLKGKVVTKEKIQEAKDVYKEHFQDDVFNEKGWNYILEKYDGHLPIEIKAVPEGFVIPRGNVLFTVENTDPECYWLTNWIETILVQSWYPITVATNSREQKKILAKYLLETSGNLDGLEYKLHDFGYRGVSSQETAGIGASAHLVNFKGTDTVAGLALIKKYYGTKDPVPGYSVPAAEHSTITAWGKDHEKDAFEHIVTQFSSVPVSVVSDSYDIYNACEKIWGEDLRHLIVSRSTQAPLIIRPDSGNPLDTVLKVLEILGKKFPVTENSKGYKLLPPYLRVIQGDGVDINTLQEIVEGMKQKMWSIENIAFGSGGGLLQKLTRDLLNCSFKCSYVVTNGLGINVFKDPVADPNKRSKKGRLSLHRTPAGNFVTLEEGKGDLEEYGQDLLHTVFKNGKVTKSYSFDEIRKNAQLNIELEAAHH
Format: biochemical
Experimental: The following were added to a well: 20 μL 2× test compound in Basic Buffer (0.02% BSA, 2 mM DTT, 12 mM MgCl2, 50 mM Tris pH7.5); 10 μL 8 μg/mL NAMPT, and 200 μM PRPP working solution (or PRPP working solution to background wells). 10 μL 100 μM NAM working solution was added to start the reaction. The plate was sealed and incubated for 45 minutes at 37° C. After incubation, 10 μL 20% acetophenone in DMSO, 10 μL 2N KOH, and 20 μL 88% formic acid were added. The plate was sealed and incubated for 30 minutes at 37° C. After incubation, fluorescence at Ex/Em 387/441 was read.
(§1) In each table header, A: NAMPT enzyme inhibitory activity, IC50 (μM); B: Cellular NAD inhibitory activity, IC50 (μM); and C: change in NAD levels in response to test compound, shown as % of NAD activity in the absence of test compound. […] A percentage of 100 percent would indicate no increase or decrease in NAD levels as compared to that measured for untreated control cells, while a percentage of 50 percent would indicate a decrease in NAD levels of 50 percent as compared to that measured for untreated control cells.
With `O=C(NCCN1CCCC1)c1cnc2nc(-c3ccc(F)cc3)c(-c3ccc(F)cc3)nc2c1` [BC20202] the IC50 was no less than 25 µM. `O=C(NCc1cccnc1)c1cnc2nc(-c3ccc(F)cc3)c(-c3ccc(F)cc3)nc2c1` [BC20203] showed an IC50 of 1 to 25 µM. With `O=C(NCc1ccncc1)c1cnc2nc(-c3ccc(F)cc3)c(-c3ccc(F)cc3)nc2c1` [BC20204] the IC50 was no less than 25 µM. Compound `O=C(NCCc1ccncc1)c1cnc2nc(-c3ccc(F)cc3)c(-c3ccc(F)cc3)nc2c1` [BC20206] has an IC50 of less than 1 µM. In the case of `O=C(NCc1ccccc1)Nc1cnc2nc(-c3ccc(F)cc3)c(-c3ccc(F)cc3)nc2c1` [BC20207], the IC50 is reported as no less than 25 µM. `CC(=O)Nc1cccc(-c2nc3cc(C(=O)N4CCN(C)CC4)ccc3nc2-c2ccc(F)cc2)c1` [BC20208] gave an IC50 of no less than 25 µM. `COCC(=O)Nc1cccc(-c2nc3cc(C(=O)N4CCN(C)CC4)ccc3nc2-c2ccc(F)cc2)c1` [BC20209] gave an IC50 of no less than 25 µM. For `CN1CCN(C(=O)c2ccc3nc(-c4ccc(F)cc4)c(-c4cccc(NS(C)(=O)=O)c4)nc3c2)CC1` [BC20210], the IC50 was no less than 25 µM. `C#CCNC(=O)c1ccc2nc(-c3ccc(F)cc3)c(-c3cccc(NC(=O)COC)c3)nc2c1` [BC20211] showed an IC50 of no less than 25 µM. Compound `C#CCNC(=O)c1ccc2nc(-c3ccc(F)cc3)c(-c3cccc(NS(C)(=O)=O)c3)nc2c1` [BC20212] has an IC50 of no less than 25 µM. Work on `C#CCNC(=O)c1ccc2nc(-c3ccc(F)cc3)c(-c3cccc(NC(=O)CN(C)C)c3)nc2c1` [BC20214] yielded an IC50 of no less than 25 µM. Compound `CN(C)Cc1cccc(-c2nc3cc(C(=O)N4CCN(C)CC4)ccc3nc2-c2ccc(F)cc2)c1` [BC20215] has an IC50 of no less than 25 µM. Work on `CC(=O)N1CCCC(NC(=O)Nc2ccc3nc(-c4ccc(F)cc4)c(-c4ccc(F)cc4)nc3c2)C1` (centres unmarked) [BC20217] yielded an IC50 of 1 to 25 µM. For `O=C1NCCCN1c1ccc2nc(-c3ccc(F)cc3)c(-c3ccc(F)cc3)nc2c1` [BC20218], the IC50 was no less than 25 µM. With `O=C1N(Cc2cccnc2)CCCN1c1ccc2nc(-c3ccc(F)cc3)c(-c3ccc(F)cc3)nc2c1` [BC20219] the IC50 was no less than 25 µM. With `C#CCNC(=O)c1ccc2nc(-c3ccc(F)cc3)c(-c3cccc(CO)c3)nc2c1` [BC20220] the IC50 was no less than 25 µM. `COCC(=O)Nc1cccc(-c2nc3ccc(C(=O)N4CCN(C)CC4)cc3nc2-c2cccc(NC(=O)COC)c2)c1` [BC20221] gave an IC50 of no less than 25 µM. `C#CCNC(=O)c1ccc2nc(-c3ccc(F)cc3)c(-c3cccc(NC(C)=O)c3)nc2c1` [BC20222] showed an IC50 of no less than 25 µM. `C#CCNC(=O)c1ccc2nc(-c3ccc(F)cc3)c(-c3cccc(CN4CCCC4)c3)nc2c1` [BC20223] gave an IC50 of no less than 25 µM. In the case of `O=C(Nc1ccc2nc(-c3ccc(F)cc3)c(-c3ccc(F)cc3)nc2c1)NC1CCCNC1` (centres unmarked) [BC20225], the IC50 is reported as no less than 25 µM. `O=C1N(Cc2ccncc2)CCCN1c1ccc2nc(-c3ccc(F)cc3)c(-c3ccc(F)cc3)nc2c1` [BC20226] was tested, and the IC50 was 1 to 25 µM. `C#CCNC(=O)c1ccc2nc(-c3cccc(NC(C)=O)c3)c(-c3cccc(NC(C)=O)c3)nc2c1` [BC20227] gave an IC50 of no less than 25 µM. `C#CCNC(=O)c1ccc2nc(-c3cccc(NC(=O)COC)c3)c(-c3cccc(NC(=O)COC)c3)nc2c1` [BC20228] gave an IC50 of no less than 25 µM. For `CN(C)CC(=O)Nc1cccc(-c2nc3cc(C(=O)N4CCN(C)CC4)ccc3nc2-c2ccc(F)cc2)c1` [BC20229], the IC50 was no less than 25 µM. `CC(=O)NCc1cccc(-c2nc3cc(C(=O)N4CCN(C)CC4)ccc3nc2-c2ccc(F)cc2)c1` [BC20230] was tested, and the IC50 was no less than 25 µM. With `CN1CCN(C(=O)c2ccc3nc(-c4ccc(F)cc4)c(-c4cccc(CNS(C)(=O)=O)c4)nc3c2)CC1` [BC20231] the IC50 was no less than 25 µM. `CN1CCN(Cc2cccc(-c3nc4cc(C(=O)N5CCN(C)CC5)ccc4nc3-c3ccc(F)cc3)c2)CC1` [BC20232] was tested, and the IC50 was no less than 25 µM. `C#CCNC(=O)c1ccc2nc(-c3ccc(F)cc3)c(-c3cccc(CN(C)C)c3)nc2c1` [BC20233] showed an IC50 of no less than 25 µM. Compound `C#CCNC(=O)c1ccc2nc(-c3cccc(CN(C)C)c3)c(-c3ccc(F)cc3)nc2c1` [BC20234] has an IC50 of no less than 25 µM. In the case of `O=C(NCc1cccnc1)NCc1ccc2nc(-c3ccc(F)cc3)c(-c3ccc(F)cc3)nc2c1` [BC20236], the IC50 is reported as 1 to 25 µM. `CN1CCCC(NC(=O)Nc2ccc3nc(-c4ccc(F)cc4)c(-c4ccc(F)cc4)nc3c2)C1` (centres unmarked) [BC20237] was tested, and the IC50 was no less than 25 µM. For `CS(=O)(=O)N1CCCC(NC(=O)Nc2ccc3nc(-c4ccc(F)cc4)c(-c4ccc(F)cc4)nc3c2)C1` (centres unmarked) [BC20238], the IC50 was 1 to 25 µM. With `CC(=O)N1CCCC(NC(=O)Nc2cnc3nc(-c4ccc(F)cc4)c(-c4ccc(F)cc4)nc3c2)C1` (centres unmarked) [BC20239] the IC50 was no less than 25 µM. For `CN1CCN(C(=O)c2ccc3nc(-c4ccc(F)cc4)c(-c4cccc(CO)c4)nc3c2)CC1` [BC20240], the IC50 was no less than 25 µM. `CC(=O)Nc1cccc(-c2nc3ccc(C(=O)N4CCN(C)CC4)cc3nc2-c2cccc(NC(C)=O)c2)c1` [BC20241] was tested, and the IC50 was no less than 25 µM. With `CN1CCN(C(=O)c2ccc3nc(-c4cccc(CN5CCCC5)c4)c(-c4cccc(CN5CCCC5)c4)nc3c2)CC1` [BC20242] the IC50 was no less than 25 µM. For `CN1CCN(Cc2cccc(-c3nc4ccc(C(=O)N5CCN(C)CC5)cc4nc3-c3cccc(CN4CCN(C)CC4)c3)c2)CC1` [BC20243], the IC50 was no less than 25 µM. `C#CCNC(=O)c1ccc2nc(-c3ccc(F)cc3)c(-c3cccc(N(C)C)c3)nc2c1` [BC20244] showed an IC50 of no less than 25 µM. `COCC(=O)Nc1cccc(-c2nc3ccc(C(=O)N4CCN(C)CC4)cc3nc2-c2ccc(F)cc2)c1` [BC20245] showed an IC50 of no less than 25 µM. `CN1CCN(C(=O)c2ccc3nc(-c4cccc(N(C)C)c4)c(-c4ccc(F)cc4)nc3c2)CC1` [BC20246] gave an IC50 of no less than 25 µM. Work on `C#CCNC(=O)c1ccc2nc(-c3cccc(NS(C)(=O)=O)c3)c(-c3ccc(F)cc3)nc2c1` [BC20247] yielded an IC50 of 1 to 25 µM. `CN1CCN(C(=O)c2ccc3nc(-c4cccc(CN5CCCC5)c4)c(-c4ccc(F)cc4)nc3c2)CC1` [BC20248] was tested, and the IC50 was no less than 25 µM. `CN1CCN(Cc2cccc(-c3nc4ccc(C(=O)N5CCN(C)CC5)cc4nc3-c3ccc(F)cc3)c2)CC1` [BC20249] gave an IC50 of no less than 25 µM. With `O=C(NCc1ccc2nc(-c3ccc(F)cc3)c(-c3ccc(F)cc3)nc2c1)NC1CCCNC1` (centres unmarked) [BC20250] the IC50 was no less than 25 µM. `CN1CCCC(NC(=O)NCc2ccc3nc(-c4ccc(F)cc4)c(-c4ccc(F)cc4)nc3c2)C1` (centres unmarked) [BC20251] showed an IC50 of no less than 25 µM. In the case of `CC(=O)N1CCCC(NC(=O)NCc2ccc3nc(-c4ccc(F)cc4)c(-c4ccc(F)cc4)nc3c2)C1` (centres unmarked) [BC20252], the IC50 is reported as no less than 25 µM.

What follows are compounds tested on A431 cells (assay: Assay for total NADH and NAD+ measurements in cells). Details: percent of NAD level of untreated control cells (100 = no change).
Format: cell-based
Parameters: C: change in NAD levels in response to test compound, shown as % of NAD activity in the absence of test compound: concentration or dose not given beside the values
Experimental: 2,000 cells/well and, at the same time, test compounds dissolved in media at the desired concentration were added to each well. The treated cells were incubated overnight in C02 incubator. The cells were washed 6 times with PBS with 1 mM CaCl2) and 1 mM MgCl2. In the last wash, 10 μL of PBS with 1 mM CaCl2) and 1 mM MgCl2 per well were left in each well. Immediately thereafter, 10 μL 0.4% dodecyltrimethylammonium bromide (DTAB) in phosphate buffer pH 8.0 as added, and the plates were shaked at 1000 rpm for 5 minutes. 60 μL reaction mix was added, and fluorescence at Ex/Em 530/585 was immediately monitored. A linear increase should be achieved with 8 cycles every 92 seconds, 10 number of flashes/well/cycle. The reaction mix was prepared per the following table, respecting the amount and order in which each component was added:
All assays were performed in A431 cells. Referring to the tables below, activity: “+” ≥25 μM, “++” ≥1 μM and <25 μM, and “+++”<1 μM.
as §1
`O=C(NCCCN1CCOCC1)Nc1ccc2nc(-c3ccc(F)cc3)c(-c3ccc(F)cc3)nc2c1` [BC19576] was tested, and the “C: change in NAD levels in response to test compound, shown as % of NAD activity in the absence of test compound” value was 61%. With `CN1CCN(Cc2ccc3nc(-c4ccc(F)cc4)c(-c4ccc(F)cc4)nc3c2)CC1` [BC19577] the “C: change in NAD levels in response to test compound, shown as % of NAD activity in the absence of test compound” value was 41%. With `CN1CCN(C(=O)c2ccc3nc(-c4ccc(F)cc4)c(Nc4ccc(F)cc4)nc3c2)CC1` [BC19578] the “C: change in NAD levels in response to test compound, shown as % of NAD activity in the absence of test compound” value was 89%. `CN1CCN(CCNC(=O)Nc2ccc3nc(-c4ccc(F)cc4)c(-c4ccc(F)cc4)nc3c2)CC1` [BC19616] was tested, and the “C: change in NAD levels in response to test compound, shown as % of NAD activity in the absence of test compound” value was 31%. `O=C(NCCCN1CCCC1=O)Nc1ccc2nc(-c3ccc(F)cc3)c(-c3ccc(F)cc3)nc2c1` [BC19617] was tested, and the “C: change in NAD levels in response to test compound, shown as % of NAD activity in the absence of test compound” value was 58%. For `CNc1ncc(-c2ccc3nc(-c4ccc(F)cc4)c(-c4ccc(F)cc4)nc3c2)o1` [BC19619], the “C: change in NAD levels in response to test compound, shown as % of NAD activity in the absence of test compound” value was 55%. For `CN1CCN(C(=O)C2CCc3nc(-c4ccc(F)cc4)c(-c4ccc(F)cc4)nc3C2)CC1` (centres unmarked) [BC19663], the “C: change in NAD levels in response to test compound, shown as % of NAD activity in the absence of test compound” value was 18%. For `OCCCn1c(-c2ccc3nc(-c4ccc(F)cc4)c(-c4ccc(F)cc4)nc3c2)n[nH]c1=S` [BC19664], the “C: change in NAD levels in response to test compound, shown as % of NAD activity in the absence of test compound” value was 70%. In the case of `OCCCn1cnnc1-c1ccc2nc(-c3ccc(F)cc3)c(-c3ccc(F)cc3)nc2c1` [BC19665], the “C: change in NAD levels in response to test compound, shown as % of NAD activity in the absence of test compound” value is reported as 58%. With `CN1CCN(C(=O)c2cc3nc(-c4ccc(F)cc4)c(-c4ccc(F)cc4)nc3cn2)CC1` [BC19666] the “C: change in NAD levels in response to test compound, shown as % of NAD activity in the absence of test compound” value was 70%. `Cn1oc(-c2ccc3nc(-c4ccc(F)cc4)c(-c4ccc(F)cc4)nc3c2)cc1=O` [BC19667] was tested, and the “C: change in NAD levels in response to test compound, shown as % of NAD activity in the absence of test compound” value was 38%. For `C/N=C(\c1ccc2nc(-c3ccc(F)cc3)c(-c3ccc(F)cc3)nc2c1)N1CCN(C)CC1` [BC19668], the “C: change in NAD levels in response to test compound, shown as % of NAD activity in the absence of test compound” value was 31%. `CN1CCN(C(=O)C2Cc3nc(-c4ccc(F)cc4)c(-c4ccc(F)cc4)nc3C2)CC1` [BC19723] was tested, and the “C: change in NAD levels in response to test compound, shown as % of NAD activity in the absence of test compound” value was 54%.

— patent US20230321086A1, “METHODS AND MATERIALS FOR INHIBITING NICOTINAMIDE PHOSPHORIBOSYLTRANSFERASE ACTIVITY” (Universiy of Pittsburgh - Of the Commonwealth System of …, priority 2020, published 2023)
